Test results reported in patent US20230183292A1, “IMMUNOMODULATORS” (priority 2020, published 2023).
Starred links: 1 amine or outer side, 2 acyl side, 3 side chain; linkers in the order of their positions; H or OH if unused. Positions of bridges follow the written chain, without caps; N, C: chain ends. Non-standard residues stand in square brackets, D forms with d. Residues, ends and D or L forms follow the SMILES beside them. Groups on a side chain read outwards from the residue. *: point of attachment. X6 = C[C@H](CCC(=O)O)[C@H]1CC[C@H]2[C@@H]3C(=O)C[C@@H]4CC(NCC[C@H](N[*:1])C(=O)[*:2])CC[C@]4(C)[C@H]3CC(=O)[C@]12C; X3 = C[C@H](CCC(=O)O)[C@H]1CC[C@H]2[C@@H]3C(=O)C[C@@H]4CC(NC[C@H](N[*:1])C(=O)[*:2])CC[C@]4(C)[C@H]3CC(=O)[C@]12C; X9 = C[C@H](CCC(=O)O)[C@H]1CC[C@H]2[C@@H]3C(O)C[C@@H]4CC(NCC[C@H](N[*:1])C(=O)[*:2])CC[C@]4(C)[C@H]3CC(=O)[C@]12C; X8 = C[C@H](CCC(=O)O)[C@H]1CC[C@H]2[C@@H]3C(O)C[C@@H]4CC(NC[C@H](N[*:1])C(=O)[*:2])CC[C@]4(C)[C@H]3CC(=O)[C@]12C; Cholyl = C[C@H](CCC(=O)*)[C@H]1CC[C@H]2[C@@H]3[C@H](O)C[C@@H]4C[C@H](O)CC[C@]4(C)[C@H]3C[C@H](O)[C@]12C; Lithocholoyl = C[C@H](CCC(=O)*)[C@H]1CC[C@H]2[C@@H]3CC[C@@H]4C[C@H](O)CC[C@]4(C)[C@H]3CC[C@]12C; X19 = C[C@H](CCC(=O)*)[C@H]1CC[C@H]2[C@@H]3CC(=O)[C@@H]4C[C@H](O)CC[C@]4(C)[C@H]3CC[C@]12C; X33 = C[C@H](CCC(=O)*)[C@H]1CC[C@H]2[C@@H]3C(=O)C[C@@H]4C[C@H](O)CC[C@]4(C)[C@H]3CC[C@]12C; X30 = CCCCCCOC(=O)Cn1cc(C[C@H](N[*:1])C(=O)[*:2])c2ccccc21; X4 = O=C(Cn1cc(C[C@H](N[*:1])C(=O)[*:2])c2ccccc21)OCCOCCO; Trp(1-CH2CO2Me) = COC(=O)Cn1cc(C[C@H](N)C(=O)O)c2ccccc21; Trp(1-CH2COOH) = N[C@@H](Cc1cn(CC(=O)O)c2ccccc12)C(=O)O; Pro(4R-Me) = C[C@H]1CN[C@H](C(=O)O)C1; Hyp = O=C(O)[C@@H]1C[C@@H](O)CN1; NMeNle = CCCC[C@H](NC)C(=O)O; NMeA = CN[C@@H](C)C(=O)O; Dab = NCC[C@H](N)C(=O)O; Dap = NC[C@H](N)C(=O)O

Each compound was assayed against T1, PD-1/PD-L1 (Homo sapiens, UniProt Q9NZQ7) (assay: PD-1/PD-L1 Homogenous Time-Resolved Fluorescence (HTRF) binding assay). Details: PD-L1-His 10 nM, PD-1-Ig 20 nM; read-out: HTRF IC50.
T1 construct: TVMV protease site (C); made in house; host or cells: HEK293T cells
Procedure, shortened: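 Inhibitors pre-incubated 15 min with PD-L1-His (10 nM final) in dPBS, 0.1% BSA, 0.05% Tween-20, then 15 min with PD-1-Ig (20 nM final). Eu-cryptate anti-Ig (1 nM) and APC anti-His (20 nM) added, 30 min equilibration; HTRF 665/620 nm ratio. Human ECD proteins from HEK293T.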

T1 sequence (Q9NZQ7 18-239): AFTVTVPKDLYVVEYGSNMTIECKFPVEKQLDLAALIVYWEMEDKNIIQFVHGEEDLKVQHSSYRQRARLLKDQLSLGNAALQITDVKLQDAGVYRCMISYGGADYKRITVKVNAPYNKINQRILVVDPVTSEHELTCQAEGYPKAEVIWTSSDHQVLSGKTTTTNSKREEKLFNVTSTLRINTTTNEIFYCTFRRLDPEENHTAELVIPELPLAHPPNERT

| Compound | IC50 [nM] |
| --- | --- |
| CCCC[C@H]1C(=O)N(C)[C@@H](CCCC)C(=O)N[C@@H](CC(C)C)C(=O)N[C@H](C(=O)NCC(N)=O)CSCC(=O)N[C@@H](Cc2ccc(O)cc2)C(=O)N(C)[C@@H](C)C(=O)N[C@@H](CC(N)=O)C(=O)N2CCC[C@H]2C(=O)N[C@@H](CNC(=O)CC[C@@H](C)[C@H]2CC[C@H]3[C@@H]4CC[C@@H]5C[C@H](O)CC[C@]5(C)[C@H]4CC[C@]23C)C(=O)N[C@@H](CC(C)C)C(=O)N2C[C@H](O)C[C@H]2C(=O)N[C@@H](Cc2c[nH]c3ccccc23)C(=O)N[C@@H](CCNC(=O)CC[C@@H](C)[C@H]2CC[C@H]3[C@@H]4CC[C@@H]5C[C@H](O)CC[C@]5(C)[C@H]4CC[C@]23C)C(=O)N[C@@H](Cc2cn(CC(=O)OC)c3ccccc23)C(=O)N1C [Example 1004] ({CH2CO}-Y[NMeA]NP[Dap](Lithocholoyl)L[Hyp]W[Dab](Lithocholoyl)[Trp(1-CH2CO2Me)][NMeNle][NMeNle]LCG-NH2; thioether N-14) | > 10000 |
| CCCC[C@H]1C(=O)N(C)[C@@H](CCCC)C(=O)N[C@@H](CC(C)C)C(=O)N[C@H](C(=O)NCC(N)=O)CSCC(=O)N[C@@H](Cc2ccc(O)cc2)C(=O)N(C)[C@@H](C)C(=O)N[C@@H](CC(N)=O)C(=O)N2CCC[C@H]2CN[C@@H](CNC(=O)CC[C@@H](C)[C@H]2CC[C@H]3[C@@H]4C(=O)C[C@@H]5CC(=O)CC[C@]5(C)[C@H]4CC(=O)[C@]23C)C(=O)N[C@@H](CC(C)C)C(=O)N2C[C@H](O)C[C@H]2C(=O)N[C@@H](Cc2c[nH]c3ccccc23)C(=O)N[C@@H](CCNC(=O)CC[C@@H](C)[C@H]2CC[C@H]3[C@@H]4C(=O)C[C@@H]5CC(=O)CC[C@]5(C)[C@H]4CC(=O)[C@]23C)C(=O)N[C@@H](Cc2cn(CC(=O)OC3CC3)c3ccccc23)C(=O)N1C [Example 2011] | 35 |
| CCCC[C@H]1C(=O)N(C)[C@@H](CCCC)C(=O)N[C@@H](CC(C)C)C(=O)N[C@H](C(=O)NCC(N)=O)CSCC(=O)N[C@@H](Cc2ccc(O)cc2)C(=O)N(C)[C@@H](C)C(=O)N[C@@H](CC(N)=O)C(=O)N2CCC[C@H]2C(=O)N[C@@H](CNC(=O)CC[C@@H](C)[C@H]2CC[C@H]3[C@@H]4C(=O)C[C@@H]5C[C@H](O)CC[C@]5(C)[C@H]4CC[C@]23C)C(=O)N[C@@H](CC(C)C)C(=O)N2C[C@H](O)C[C@H]2C(=O)N[C@@H](Cc2c[nH]c3ccccc23)C(=O)N[C@@H](CCNC(=O)CC[C@@H](C)[C@H]2CC[C@H]3[C@@H]4C(=O)C[C@@H]5C[C@H](O)CC[C@]5(C)[C@H]4CC[C@]23C)C(=O)N[C@@H](Cc2cn(CC(=O)O)c3ccccc23)C(=O)N1C [Example 1016] ({CH2CO}-Y[NMeA]NP[Dap](X33)L[Hyp]W[Dab](X33)[Trp(1-CH2COOH)][NMeNle][NMeNle]LCG-NH2; thioether N-14) | 12 |
| CCCC[C@H]1C(=O)N(C)[C@@H](CCCC)C(=O)N[C@@H](CC(C)C)C(=O)N[C@H](C(=O)NCC(N)=O)CSCC(=O)N[C@@H](Cc2ccc(O)cc2)C(=O)N(C)[C@@H](C)C(=O)N[C@@H](CC(N)=O)C(=O)N2CCC[C@H]2C(=O)N[C@@H](CNC2CC[C@@]3(C)[C@@H](C2)CC(O)[C@@H]2[C@@H]3CC(=O)[C@]3(C)[C@@H]([C@H](C)CCC(=O)O)CC[C@@H]23)C(=O)N[C@@H](CC(C)C)C(=O)N2C[C@H](O)C[C@H]2C(=O)N[C@@H](Cc2c[nH]c3ccccc23)C(=O)N[C@@H](CCNC2CC[C@@]3(C)[C@@H](C2)CC(O)[C@@H]2[C@@H]3CC(=O)[C@]3(C)[C@@H]([C@H](C)CCC(=O)O)CC[C@@H]23)C(=O)N[C@@H](Cc2cn(CC(=O)O)c3ccccc23)C(=O)N1C (stereo partly shown) [Example 3001] ({CH2CO}-Y[NMeA]NP[X8]L[Hyp]W[X9][Trp(1-CH2COOH)][NMeNle][NMeNle]LCG-NH2; thioether N-14) | 20 |
| CCCC[C@H]1C(=O)N(C)[C@@H](CCCC)C(=O)N[C@@H](CC(C)C)C(=O)N[C@H](C(=O)NCC(N)=O)CSCC(=O)N[C@@H](Cc2ccc(O)cc2)C(=O)N(C)[C@@H](C)C(=O)N[C@@H](CC(N)=O)C(=O)N2CCC[C@H]2C(=O)N[C@@H](CNC2CC[C@@]3(C)[C@H](CC(=O)[C@@H]4[C@@H]3CC(=O)[C@]3(C)[C@@H]([C@H](C)CCC(=O)O)CC[C@@H]43)C2)C(=O)N[C@@H](CC(C)C)C(=O)N2C[C@H](O)C[C@H]2C(=O)N[C@@H](Cc2c[nH]c3ccccc23)C(=O)N[C@@H](CCN)C(=O)N[C@@H](Cc2cn(CC(=O)O)c3ccccc23)C(=O)N1C (stereo partly shown) [Example 3005] ({CH2CO}-Y[NMeA]NP[X3]L[Hyp]W[Dab][Trp(1-CH2COOH)][NMeNle][NMeNle]LCG-NH2; thioether N-14) | 13 |
| CCCC[C@H]1C(=O)N(C)[C@@H](CCCC)C(=O)N[C@@H](CC(C)C)C(=O)N[C@H](C(=O)NCC(N)=O)CSCC(=O)N[C@@H](Cc2ccc(O)cc2)C(=O)N(C)[C@@H](C)C(=O)N[C@@H](CC(N)=O)C(=O)N2CCC[C@H]2C(=O)N[C@@H](CNC(=O)CC[C@@H](C)[C@H]2CC[C@H]3[C@@H]4CC[C@@H]5C[C@H](O)CC[C@]5(C)[C@H]4CC[C@]23C)C(=O)N[C@@H](CC(C)C)C(=O)N2C[C@H](O)C[C@H]2C(=O)N[C@@H](Cc2c[nH]c3ccccc23)C(=O)N[C@@H](CCN)C(=O)N[C@@H](Cc2cn(CC(=O)O)c3ccccc23)C(=O)N1C [Example 1009] ({CH2CO}-Y[NMeA]NP[Dap](Lithocholoyl)L[Hyp]W[Dab][Trp(1-CH2COOH)][NMeNle][NMeNle]LCG-NH2; thioether N-14) | 17 |
| CCCC[C@H]1C(=O)N(C)[C@@H](CCCC)C(=O)N[C@@H](CC(C)C)C(=O)N[C@H](C(=O)NCC(N)=O)CSCC(=O)N[C@@H](Cc2ccc(O)cc2)C(=O)N(C)[C@@H](C)C(=O)N[C@@H](CC(N)=O)C(=O)N2CCC[C@H]2C(=O)N[C@@H](CNC2CC[C@@]3(C)[C@H](CC(=O)[C@@H]4[C@@H]3CC(=O)[C@]3(C)[C@@H]([C@H](C)CCC(=O)O)CC[C@@H]43)C2)C(=O)N[C@@H](CC(C)C)C(=O)N2C[C@H](O)C[C@H]2C(=O)N[C@@H](Cc2c[nH]c3ccccc23)C(=O)N[C@@H](CCNC2CC[C@@]3(C)[C@H](CC(=O)[C@@H]4[C@@H]3CC(=O)[C@]3(C)[C@@H]([C@H](C)CCC(=O)O)CC[C@@H]43)C2)C(=O)N[C@@H](Cc2cn(CC(=O)O)c3ccccc23)C(=O)N1C (stereo partly shown) [Example 3003] ({CH2CO}-Y[NMeA]NP[X3]L[Hyp]W[X6][Trp(1-CH2COOH)][NMeNle][NMeNle]LCG-NH2; thioether N-14) | 17 |
| CCCC[C@H]1C(=O)N(C)[C@@H](CCCC)C(=O)N[C@@H](CC(C)C)C(=O)N[C@H](C(=O)NCC(N)=O)CSCC(=O)N[C@@H](Cc2ccc(O)cc2)C(=O)N(C)[C@@H](C)C(=O)N[C@@H](CC(N)=O)C(=O)N2CCC[C@H]2C(=O)N[C@@H](CNC(=O)CC[C@@H](C)[C@H]2CC[C@H]3[C@@H]4CC(=O)[C@@H]5C[C@H](O)CC[C@]5(C)[C@H]4CC[C@]23C)C(=O)N[C@@H](CC(C)C)C(=O)N2C[C@H](O)C[C@H]2C(=O)N[C@@H](Cc2c[nH]c3ccccc23)C(=O)N[C@@H](CCNC(=O)CC[C@@H](C)[C@H]2CC[C@H]3[C@@H]4CC(=O)[C@@H]5C[C@H](O)CC[C@]5(C)[C@H]4CC[C@]23C)C(=O)N[C@@H](Cc2cn(CC(=O)O)c3ccccc23)C(=O)N1C [Example 1017] ({CH2CO}-Y[NMeA]NP[Dap](X19)L[Hyp]W[Dab](X19)[Trp(1-CH2COOH)][NMeNle][NMeNle]LCG-NH2; thioether N-14) | 15 |
| CCCC[C@H]1C(=O)N(C)[C@@H](CCCC)C(=O)N[C@@H](CC(C)C)C(=O)N[C@H](C(=O)NCC(N)=O)CSCC(=O)N[C@@H](Cc2ccc(O)cc2)C(=O)N(C)[C@@H](C)C(=O)N[C@@H](CC(N)=O)C(=O)N2CCC[C@H]2C(=O)N[C@@H](CNC(=O)CNC(=O)CC[C@@H](C)[C@H]2CC[C@H]3[C@@H]4[C@H](O)C[C@@H]5C[C@H](O)CC[C@]5(C)[C@H]4C[C@H](O)[C@]23C)C(=O)N[C@@H](CC(C)C)C(=O)N2C[C@H](C)C[C@H]2C(=O)N[C@@H](Cc2c[nH]c3ccccc23)C(=O)N[C@@H](CCNC(=O)CNC(=O)CC[C@@H](C)[C@H]2CC[C@H]3[C@@H]4[C@H](O)C[C@@H]5C[C@H](O)CC[C@]5(C)[C@H]4C[C@H](O)[C@]23C)C(=O)N[C@@H](Cc2cn(CC(=O)OCCOCCO)c3ccccc23)C(=O)N1C [Example 2036] ({CH2CO}-Y[NMeA]NP[Dap]([Gly-Cholyl])L[Pro(4R-Me)]W[Dab]([Gly-Cholyl])[X4][NMeNle][NMeNle]LCG-NH2; thioether N-14) | 1000 |
| CCCCCCOC(=O)Cn1cc(C[C@@H]2NC(=O)[C@H](CCNC(=O)CNC(=O)CC[C@@H](C)[C@H]3CC[C@H]4[C@@H]5[C@H](O)C[C@@H]6C[C@H](O)CC[C@]6(C)[C@H]5C[C@H](O)[C@]34C)NC(=O)[C@H](Cc3c[nH]c4ccccc34)NC(=O)[C@@H]3C[C@@H](C)CN3C(=O)[C@H](CC(C)C)NC(=O)[C@H](CNC(=O)CNC(=O)CC[C@@H](C)[C@H]3CC[C@H]4[C@@H]5[C@H](O)C[C@@H]6C[C@H](O)CC[C@]6(C)[C@H]5C[C@H](O)[C@]34C)NC(=O)[C@@H]3CCCN3C(=O)[C@H](CC(N)=O)NC(=O)[C@H](C)N(C)C(=O)[C@H](Cc3ccc(O)cc3)NC(=O)CSC[C@@H](C(=O)NCC(N)=O)NC(=O)[C@H](CC(C)C)NC(=O)[C@H](CCCC)N(C)C(=O)[C@H](CCCC)N(C)C2=O)c2ccccc21 [Example 2034] ({CH2CO}-Y[NMeA]NP[Dap]([Gly-Cholyl])L[Pro(4R-Me)]W[Dab]([Gly-Cholyl])[X30][NMeNle][NMeNle]LCG-NH2; thioether N-14) | 5200 |
